In general, inhibition refers to the drop in the measured response relative to a control, in per cent.

Experiment [1] deals with T1, hFASN enzyme (full length) (Homo sapiens, UniProt P49327).
T1 construct: 10 μL hFASN enzyme (full length, 300 ng, purified in house); made in house
In words: Fatty Acid Synthase (FASN) inhibition scintillation proximity assay. The note with it: for inhibition at 10 µM: read-out: Human FASN % inhibition @ 10 μM, 10 μM test compound; for IC50: read-out: Human FASN pIC50 (converted). The format is biochemical. The method, boiled down: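 Full-length in-house purified enzyme (300 ng) was tested in 100 mM KH2PO4 pH 7.5, 1 mM DTT with ³H-acetyl-CoA and malonyl-CoA as substrates; compounds ranged 0.01–30 μM. Reactions were stopped with streptavidin imaging beads, read by LEADseeker at 610 nm, and fitted to a 4-parameter logistic curve.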
On the technique in general: Scintillation proximity formats need no separation of bound from free tracer.

Experiment [2] concerns A2780 ovarian cells. In words: A2780 ovarian cell proliferation assay in lipid reduced medium, with palmitate (MTT). The format is cell-based. As to conditions: Homo sapiens, A2780, 96 h; read-out: pIC50 A2780 Ovarian Cell, With Palmitate (converted). In short, it runs like this:
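Seeded cells were switched next day to lipid-reduced serum, exposed to compound and 25 μM palmitate complexed with fatty-acid-free BSA, and incubated 96 h. Proliferation was then determined by MTT absorbance at 544 nm, with a best-fit curve of signal against concentration.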

Experiment [3] has as its system A2780 ovarian cells. As to the kind of experiment: A2780 ovarian cell proliferation assay in lipid reduced medium, without palmitate (MTT). It counts as cell-based. As to conditions: Homo sapiens, A2780, 96 h; read-out: pIC50 A2780 Ovarian Cell, Without Palmitate (converted).
Experiment [4] relates to LNCaP-Vancouver prostate cells. As to the kind of experiment: In vitro LNCaP Vancouver prostate cell proliferation assay in lipid reduced medium. It counts as cell-based. The note with it: read-out: pIC50 LNCaP_Vancouver prostate cell (converted).
The subject of experiment [5] is PC-3M-Luc-C6 prostate cells. As to the kind of experiment: In vitro PC-3M-Luc-C6 prostate cell proliferation assay in lipid reduced medium. The format is cell-based. As to conditions: 96 h, read-out: pIC50 PC-3M-Luc-C6 prostate cell (converted).
In experiment [6] the target is Fatty Acid Synthase Keto-reductase Domain (FASN KR) (Homo sapiens, UniProt P49327). In words: Fatty Acid Synthase keto-reductase domain (FASN KR) inhibition, NADPH oxidation at 340 nm.
Chain of Fatty Acid Synthase Keto-reductase Domain (FASN KR) (P49327 whole entry, the tested form may be a part): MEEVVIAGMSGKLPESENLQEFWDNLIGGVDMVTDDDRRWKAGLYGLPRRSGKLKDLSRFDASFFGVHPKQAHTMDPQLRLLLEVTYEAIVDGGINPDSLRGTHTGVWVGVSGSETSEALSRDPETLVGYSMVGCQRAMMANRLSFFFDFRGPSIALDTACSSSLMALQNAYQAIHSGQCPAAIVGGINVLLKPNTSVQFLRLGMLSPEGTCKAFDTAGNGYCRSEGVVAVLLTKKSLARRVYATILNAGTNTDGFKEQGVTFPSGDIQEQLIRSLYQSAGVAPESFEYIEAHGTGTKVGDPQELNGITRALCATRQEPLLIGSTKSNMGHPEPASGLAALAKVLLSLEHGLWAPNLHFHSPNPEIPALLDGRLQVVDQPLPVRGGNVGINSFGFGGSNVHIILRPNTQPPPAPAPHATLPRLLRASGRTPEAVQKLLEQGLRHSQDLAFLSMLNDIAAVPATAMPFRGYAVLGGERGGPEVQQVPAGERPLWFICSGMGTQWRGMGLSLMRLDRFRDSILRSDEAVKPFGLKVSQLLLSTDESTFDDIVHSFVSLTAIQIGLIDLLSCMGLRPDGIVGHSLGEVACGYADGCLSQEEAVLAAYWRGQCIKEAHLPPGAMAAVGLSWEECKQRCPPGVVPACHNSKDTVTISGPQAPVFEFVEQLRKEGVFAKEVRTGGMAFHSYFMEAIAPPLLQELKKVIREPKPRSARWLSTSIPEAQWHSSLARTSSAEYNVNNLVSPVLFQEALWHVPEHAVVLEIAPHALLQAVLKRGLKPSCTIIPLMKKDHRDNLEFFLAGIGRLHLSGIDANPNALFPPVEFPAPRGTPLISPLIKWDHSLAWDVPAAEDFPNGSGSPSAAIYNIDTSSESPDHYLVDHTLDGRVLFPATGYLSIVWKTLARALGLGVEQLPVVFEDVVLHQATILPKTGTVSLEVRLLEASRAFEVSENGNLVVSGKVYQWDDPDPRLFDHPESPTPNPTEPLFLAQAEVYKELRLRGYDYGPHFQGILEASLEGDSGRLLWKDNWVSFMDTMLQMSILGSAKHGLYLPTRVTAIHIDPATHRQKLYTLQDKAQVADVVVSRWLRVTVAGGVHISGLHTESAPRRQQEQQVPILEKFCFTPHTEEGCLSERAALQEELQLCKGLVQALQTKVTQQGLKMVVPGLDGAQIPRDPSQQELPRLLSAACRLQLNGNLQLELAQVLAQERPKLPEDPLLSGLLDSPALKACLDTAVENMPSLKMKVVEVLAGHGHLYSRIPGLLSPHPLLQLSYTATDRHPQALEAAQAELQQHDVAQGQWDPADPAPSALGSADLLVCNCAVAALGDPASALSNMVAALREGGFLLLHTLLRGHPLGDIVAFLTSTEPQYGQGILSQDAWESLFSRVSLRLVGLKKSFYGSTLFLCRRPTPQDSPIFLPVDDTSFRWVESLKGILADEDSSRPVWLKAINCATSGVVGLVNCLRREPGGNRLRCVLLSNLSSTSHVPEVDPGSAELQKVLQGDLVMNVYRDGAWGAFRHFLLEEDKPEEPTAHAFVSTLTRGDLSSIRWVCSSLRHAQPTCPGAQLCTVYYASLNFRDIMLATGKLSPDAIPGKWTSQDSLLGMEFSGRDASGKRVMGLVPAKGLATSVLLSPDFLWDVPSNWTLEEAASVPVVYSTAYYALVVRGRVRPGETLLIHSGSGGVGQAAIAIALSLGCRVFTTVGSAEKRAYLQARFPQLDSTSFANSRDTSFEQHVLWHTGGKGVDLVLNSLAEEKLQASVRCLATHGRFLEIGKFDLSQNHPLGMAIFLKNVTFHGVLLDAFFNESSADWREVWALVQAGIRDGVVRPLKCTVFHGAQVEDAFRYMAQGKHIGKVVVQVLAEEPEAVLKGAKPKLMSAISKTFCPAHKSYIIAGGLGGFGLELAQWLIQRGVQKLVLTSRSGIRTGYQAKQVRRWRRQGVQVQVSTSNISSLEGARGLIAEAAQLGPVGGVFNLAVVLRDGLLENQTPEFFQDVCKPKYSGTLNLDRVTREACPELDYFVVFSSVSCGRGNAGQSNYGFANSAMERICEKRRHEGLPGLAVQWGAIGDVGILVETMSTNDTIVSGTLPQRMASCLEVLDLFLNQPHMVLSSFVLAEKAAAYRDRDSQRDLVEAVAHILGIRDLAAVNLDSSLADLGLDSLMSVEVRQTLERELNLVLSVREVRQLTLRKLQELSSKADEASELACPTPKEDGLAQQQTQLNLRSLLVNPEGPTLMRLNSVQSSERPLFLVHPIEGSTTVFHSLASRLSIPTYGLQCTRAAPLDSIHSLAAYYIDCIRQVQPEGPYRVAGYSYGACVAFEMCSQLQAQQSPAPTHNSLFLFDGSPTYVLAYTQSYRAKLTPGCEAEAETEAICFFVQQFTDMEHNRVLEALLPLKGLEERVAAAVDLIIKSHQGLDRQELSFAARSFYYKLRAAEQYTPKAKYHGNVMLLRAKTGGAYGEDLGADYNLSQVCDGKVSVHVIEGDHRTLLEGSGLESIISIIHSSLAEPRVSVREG
Experimental: After 20 minutes incubation at room temperature the plate was measured again (T2).
The decrease in absorbance was calculated as (Absorbance before incubation T1)−(Absorbance following incubation T2).
A plot of Controlmin versus test compound concentration was fitted to a 4-parameter logistic curve using a non-linear least squares regression method.

T1 sequence (P49327 whole entry): as the sequence (P49327 whole entry, the tested form may be a part) above

`Cc1cc(-c2ccc3cc[nH]c3c2)ccc1C1=NC2(CC2)C(=O)N1CC1CN(C(=O)C2CC2)C1` [compound 303, 5-(4-(1H-indol-6-yl)-2-methylphenyl)-6-((1-(cyclopropancarbonyl)azetidin-3-yl)methyl)-4,6-diazaspiro[2.4]hept-4-en-7-one]: the inhibition at 10 µM in experiment [1] was determined as 102%. Further, the IC50 in experiment [1] was 0.0309 µM; in experiment [2], over 6.17 µM; in experiment [3], 0.0288 µM; in experiment [4] it was about 0.912 µM; in experiment [5], 0.0398 µM; in experiment [6], 0.0692 µM.
Regarding `Cc1cc(-c2cccc3[nH]ncc23)ccc1C1=NC2(CC2)C(=O)N1CC1CN(C(=O)C2CC2)C1` [compound 304, 5-(4-(1H-indazol-4-yl)-2-methylphenyl)-6-((1-(cyclopropanecarbonyl)azetidin-3-yl)methyl)-4,6-diazaspiro[2.4]hept-4-en-7-one], the inhibition at 10 µM in experiment [1] was 99%. Also, the IC50 was 0.0977 µM in experiment [1]; over 10 µM in experiment [2]; 0.0851 µM in experiment [3]; 1.26 µM in experiment [4]; 0.0724 µM in experiment [5]; 0.224 µM in experiment [6].
For the compound `Cc1cc(-c2ccc3cc[nH]c3c2)ccc1C1=NC2(CC2)C(=O)N1C[C@@H]1CCN(C(=O)C2CC2)C1` [compound 305, (R)-5-(4-(1H-indol-6-yl)-2-methylphenyl)-6-((1-(cyclopropanecarbonyl)pyrrolidin-3-yl)methyl)-4,6-diazaspiro[2.4]hept-4-en-7-one], the inhibition at 10 µM in experiment [1] was 103%. Moreover, the IC50 was 0.0251 µM in experiment [1]; over 10 µM in experiment [2]; 0.0407 µM in experiment [3]; 0.263 µM in experiment [4]; 0.0288 µM in experiment [5]; 0.0309 µM in experiment [6].
Consider `Cc1cc(-c2cccc3[nH]ncc23)ccc1C1=NC2(CC2)C(=O)N1C[C@@H]1CCN(C(=O)C2CC2)C1` [compound 306, (R)-5-(4-(1H-indazol-4-yl)-2-methylphenyl)-6-((1-(cyclopropanecarbonyl)pyrrolidin-3-yl)methyl)-4,6-diazaspiro[2.4]hept-4-en-7-one], for which, in experiment [1], the inhibition at 10 µM came out at 98%. Besides, the IC50 is 0.0501 µM in experiment [1]; over 10 µM in experiment [2]; 0.0178 µM in experiment [3]; 0.513 µM in experiment [4]; 0.017 µM in experiment [5]; 0.105 µM in experiment [6].
For the compound `O=C(C1CC1)N1CC[C@@H](CN2C(=O)C3(CC3)N=C2c2ccc(-c3nc4ccccc4o3)cc2)C1` [compound 307, (R)-5-(4-(benzo[d]oxazol-2-yl)phenyl)-6-((1-(cyclopropanecarbonyl)pyrrolidin-3-yl)methyl)-4,6-diazaspiro[2.4]hept-4-en-7-one], in experiment [1], the inhibition at 10 µM is 100%. Besides, the IC50 was 0.0676 µM in experiment [1]; over 10 µM in experiment [2]; 0.0912 µM in experiment [3]; 0.661 µM in experiment [4]; 0.102 µM in experiment [5]; 0.145 µM in experiment [6].
Take `O=C(C1CC1)N1CC[C@@H](CN2C(=O)C3(CC3)N=C2c2ccc(-c3nc4ccccc4s3)cc2)C1` [compound 308, (R)-5-(4-(benzo[d]thiazol-2-yl)phenyl)-6-((1-(cyclopropanecarbonyl)pyrrolidin-3-yl)methyl)-4,6-diazaspiro[2.4]hept-4-en-7-one]: the inhibition at 10 µM in experiment [1] was 102%. For the same compound, the IC50 in experiment [1] is 0.0479 µM; in experiment [2], over 10 µM; in experiment [3], 0.145 µM; in experiment [4] it was 0.479 µM; in experiment [5], 0.1 µM; in experiment [6], 0.129 µM.
Take `O=C(C1CC1)N1CC[C@@H](CN2C(=O)C3(CC3)N=C2c2ccc(-c3cccc4ncccc34)cc2)C1` [compound 310, (R)-6-((1-(cyclopropanecarbonyl)pyrrolidin-3-yl)methyl)-5-(4-(quinolin-5-yl)phenyl)-4,6-diazaspiro[2.4]hept-4-en-7-one]: the inhibition at 10 µM in experiment [1] turned out to be 102%. Further, the IC50 in experiment [1] is 0.0398 µM; in experiment [2], over 6.17 µM; in experiment [3] it was 0.589 µM; in experiment [4], 0.813 µM; in experiment [5], about 0.324 µM; in experiment [6], 0.0603 µM.
With `O=C(C1CC1)N1CC[C@@H](CN2C(=O)C3(CC3)N=C2c2ccc(-c3ccc4cccc(F)c4c3)cc2)C1` [compound 313, (R)-6-((1-(cyclopropanecarbonyl)pyrrolidin-3-yl)methyl)-5-(4-(8-fluoronaphthalen-2-yl)phenyl)-4,6-diazaspiro[2.4]hept-4-en-7-one], the inhibition at 10 µM in experiment [1] worked out at 99%. Besides, the IC50 in experiment [1] was 0.0389 µM; in experiment [2] it was 8.71 µM; in experiment [3] it was 0.0537 µM; in experiment [4] it was 0.155 µM; in experiment [5] it was about 0.0525 µM; in experiment [6], 0.0525 µM.
Consider `Cc1cc(-c2ccc(-c3cnn(C)c3)cc2)ccc1C1=NC2(CC2)C(=O)N1C[C@@H]1CCN(C(=O)C2CC2)C1` [compound 316, (R)-6-((1-(cyclopropanecarbonyl)pyrrolidin-3-yl)methyl)-5-(3-methyl-4′-(1-methyl-1H-pyrazol-4-yl)-[1,1′-biphenyl]-4-yl)-4,6-diazaspiro[2.4]hept-4-en-7-one], for which the inhibition at 10 µM in experiment [1] came out at 108%. Moreover, the IC50 is 0.0417 µM in experiment [1]; over 10 µM in experiment [2]; about 0.0158 µM in experiment [3]; 0.102 µM in experiment [4]; 0.0195 µM in experiment [5]; 0.0759 µM in experiment [6].
Consider `Cc1cc2cc(-c3ccc(C4=NC5(CC5)C(=O)N4C[C@@H]4CCN(C(=O)C5CC5)C4)c(C)c3)ccc2[nH]1` [compound 317], for which the inhibition at 10 µM in experiment [1] is 103%. The IC50 in experiment [1] is 0.0575 µM; in experiment [2], over 10 µM; in experiment [3] it was 0.0245 µM; in experiment [4], 0.257 µM; in experiment [5], 0.0513 µM; in experiment [6], 0.0589 µM.
Turning to `Cc1cc2cc(-c3ccc(C4=NC5(CC5)C(=O)N4C[C@@H]4CCN(C(=O)C5CC5)C4)c(F)c3)ccc2[nH]1` [compound 319, (R)-6-((1-(cyclopropanecarbonyl)pyrrolidin-3-yl)methyl)-5-(2-fluoro-4-(2-methyl-1H-indol-5-yl)phenyl)-4,6-diazaspiro[2.4]hept-4-en-7-one], the inhibition at 10 µM in experiment [1] came out at 105%. Also, the IC50 in experiment [1] is 0.0288 µM; in experiment [2], over 10 µM; in experiment [3], about 0.0135 µM; in experiment [4], 0.112 µM; in experiment [5], 0.0186 µM; in experiment [6], 0.0537 µM.
For `O=C(C1CC1)N1CC(CN2C(=O)C3(CC3)N=C2c2ccc(-c3ccc4cc(Cl)ccc4c3)cc2F)C1` [compound 320, 5-(4-(6-chloronaphthalen-2-yl)-2-fluorophenyl)-6-((1-(cyclopropanecarbonyl)azetidin-3-yl)methyl)-4,6-diazaspiro[2.4]hept-4-en-7-one], in experiment [1], the inhibition at 10 µM came to 102%. In addition, the IC50 is 0.0257 µM in experiment [1]; 6.46 µM in experiment [2]; 0.0251 µM in experiment [3]; 0.251 µM in experiment [4]; 0.0501 µM in experiment [5]; about 0.0269 µM in experiment [6].
Turning to `Cc1cc(-c2ccc3cc(Cl)ccc3c2)ccc1C1=NC2(CC2)C(=O)N1CC1CN(C(=O)C2(C)CC2)C1` [compound 321, 5-(4-(6-chloronaphthalen-2-yl)-2-methylphenyl)-6-((1-(1-methylcyclopropanecarbonyl)azetidin-3-yl)methyl)-4,6-diazaspiro[2.4]hept-4-en-7-one], the inhibition at 10 µM in experiment [1] is 99%. For the same compound, the IC50 in experiment [1] is 0.0302 µM; in experiment [2], 4.37 µM; in experiment [3], 0.0178 µM; in experiment [4], 0.182 µM; in experiment [5], 0.0501 µM; in experiment [6] it was 0.0479 µM.
For `Cn1cc(-c2ccc(-c3ccc(C4=NC5(CC5)C(=O)N4CC4CN(C(=O)C5CC5)C4)c(F)c3)cc2)cn1` [compound 322, 6-((1-(cyclopropanecarbonyl)azetidin-3-yl)methyl)-5-(3-fluoro-4′-(1-methyl-1H-pyrazol-4-yl)-[1,1′-biphenyl]-4-yl)-4,6-diazaspiro[2.4]hept-4-en-7-one], the inhibition at 10 µM in experiment [1] was 102%. The IC50 in experiment [1] is 0.038 µM; in experiment [2] it was over 10 µM; in experiment [3] it was 0.0148 µM; in experiment [4] it was 0.151 µM; in experiment [5] it was about 0.0347 µM; in experiment [6], 0.0794 µM.
On to `Cn1cc(-c2ccc(-c3ccc(C4=NC5(CC5)C(=O)N4C[C@@H]4CCN(C(=O)C5CC5)C4)c(F)c3)cc2)cn1` [compound 323, (R)-6-((1-(cyclopropanecarbonyl)pyrrolidin-3-yl)methyl)-5-(3-fluoro-4′-(1-methyl-1H-pyrazol-4-yl)-[1,1′-biphenyl]-4-yl)-4,6-diazaspiro[2.4]hept-4-en-7-one], for which the inhibition at 10 µM in experiment [1] came to 101%. The IC50 in experiment [1] is 0.0251 µM; in experiment [2], over 10 µM; in experiment [3], about 0.00288 µM; in experiment [4] it was 0.0331 µM; in experiment [5], 0.00832 µM; in experiment [6], 0.0447 µM.

Source of the values: patent US10077261B2, “Imidazolin-5-one derivative useful as FASN inhibitors for the treatment of cancer” (Janssen Pharmaceutica NV, priority 2012, dated 2018).
